Measurements as given in US20190166840A1, “SUBSTITUTED PYRAZOLINYL DERIVATIVES, PROCESSES FOR THEIR PREPARATION AND THEIR USE AS HERBICIDES AND/OR PLANT GROWTH REGULATORS” (BAYER CROPSCIENCE AKTIENGESELLSCHAFT, priority 2016, published 2019).

Legend:
Type in all cases: in vivo
Settings in all cases: application rate 1280 g/ha, scored visually after about 3 weeks
[1] = system: Setaria viridis; assay: Pre-emergence herbicidal action, SETVI
From the text: (§1) Pre-Emergence Herbicidal Action Seeds of mono- and dicotyledonous weed plants or crop plants were placed in sandy loam in wood fibre pots and covered with soil. The formulated compounds of the general formula (I) according to the invention were then applied to the surface of the covering soil in the form of an aqueous suspension or emulsion at an application rate of 600 l of water/ha (converted) with addition of 0.2% wetting agent. After the treatment, the pots were placed in a greenhouse and kept under good growth conditions for the test plants. After about 3 weeks, the effect was scored visually in percent in comparison to untreated controls. For example, 100% activity=the plants have died, 50% herbicidal activity or damage=plants reduced to 50% or plant material reduced by 50%, 0% activity=like control plants. Here, in the biological tests, the compounds of the general formula (I) according to the invention were in each case employed in a formulation, with the numerations of Tables I.1 to I.77 also applying here. Here, the herbicidal action of the compounds of the general formula (I) according to the invention was examined for the following harmful plants: SETVI=Setaria viridis The respective herbicidal action was in each case determined at the same point in time after application of the formulation in question, i.e. damage of the harmful plant in question in %. Pre-emergence herbicidal action of the compounds of the general formula (I) according to the invention: […]

[2] = system: Abutilon theophrasti; assay: Pre-emergence herbicidal action, ABUTH
From the text: as §1, with “ABUTH=Abutilon theophrasti” for “SETVI=Setaria viridis”

[3] = system: Amaranthus retroflexus; assay: Pre-emergence herbicidal action, AMARE
From the text: as §1, with “AMARE=Amaranthus retroflexus” for “SETVI=Setaria viridis”

[4] = system: Ipomoea purpurea; assay: Pre-emergence herbicidal action, PHBPU
From the text: as §1, with “PHBPU=Ipomoea purpurea” for “SETVI=Setaria viridis”

[5] = system: Stellaria media; assay: Pre-emergence herbicidal action, STEME
From the text: as §1, with “STEME=Stellaria media” for “SETVI=Setaria viridis”

Row | Structure (SMILES) | Pre-emergence herbicidal action SETVI, damage of the harmful plant [1] [%] | Pre-emergence herbicidal action ABUTH, damage of the harmful plant [2] [%] | Pre-emergence herbicidal action AMARE, damage of the harmful plant [3] [%] | Pre-emergence herbicidal action PHBPU, damage of the harmful plant [4] [%] | Pre-emergence herbicidal action STEME, damage of the harmful plant [5] [%]
1 | CCC(=O)OC1C(C)=C(C)C(=O)N1C1=NN(c2ccccc2)CC1 (stereo not drawn) [I.23-621] | 50 | 0 | 40 | 0 | 0
2 | CCC(=O)OC1C(C)=C(C)C(=O)N1C1=NN(c2ccccc2)C(C(F)(F)F)C1 (stereo not drawn) [I.23-1413] | 40 | 0 | 50 | 0 | 80
3 | CCC(=O)OC1C(C)=C(Cl)C(=O)N1C1=NN(C)C(c2ccccc2)C1 (stereo not drawn) [I.24-1126] | 0 | 0 | 0 | 100 | 20
4 | CC1=C(C)C(O)N(C2=NN(c3ccccn3)C(C)(C)C2)C1=O (stereo not drawn) [I.2-132] | 40 | 70 | 60 | 0 | 100
5 | CCC(=O)OC1C(C)=C(C)C(=O)N1C1=NN(c2ccccn2)C(C)(C)C1 (stereo not drawn) [I.23-132] | 0 | 0 | 70 | 30 | 100
6 | CC1=C(C)C(O)N(C2=NN(c3ccccc3)C(C(F)(F)F)C2)C1=O (stereo not drawn) [I.2-1413] | 70 | 0 | 60 | 0 | 100
